Results as given in EP4745137A1 (Gluetacs Therapeutics (Shanghai) Co., Ltd., priority 2023, dated 2025).
pIC50: −log10 of the molar value.

Experiments:
MM.1R = assay: Tumor cell proliferation inhibition (CellTiter-Meiluncell Luminescent Cell Viability Assay), MM.1R; conditions: Homo sapiens, 96 h, read-out: inhibitory activity (IC50, nM) against tumor cells proliferation, MM.1R
Jurkat = assay: Tumor cell proliferation inhibition (CellTiter-Meiluncell Luminescent Cell Viability Assay), Jurkat; conditions: Homo sapiens, 96 h, read-out: inhibitory activity (IC50, nM) against tumor cells proliferation, Jurkat
IKZF3 = target: T1, IKZF3 (Homo sapiens, UniProt Q96SW2+Q9UKT9); assay: Western-blot assay of substrate protein degradation in hPBMCs, IKZF3; type: cell-based; conditions: 24 hours of compound treatment, compounds tested at 50 nM and 500 nM (concentration of the table not stated)
T1 construct: endogenous in cells; host or cells: hPBMCs (Milecell Biotechnologies)
T1 sequence (Q9UKT9 whole entry): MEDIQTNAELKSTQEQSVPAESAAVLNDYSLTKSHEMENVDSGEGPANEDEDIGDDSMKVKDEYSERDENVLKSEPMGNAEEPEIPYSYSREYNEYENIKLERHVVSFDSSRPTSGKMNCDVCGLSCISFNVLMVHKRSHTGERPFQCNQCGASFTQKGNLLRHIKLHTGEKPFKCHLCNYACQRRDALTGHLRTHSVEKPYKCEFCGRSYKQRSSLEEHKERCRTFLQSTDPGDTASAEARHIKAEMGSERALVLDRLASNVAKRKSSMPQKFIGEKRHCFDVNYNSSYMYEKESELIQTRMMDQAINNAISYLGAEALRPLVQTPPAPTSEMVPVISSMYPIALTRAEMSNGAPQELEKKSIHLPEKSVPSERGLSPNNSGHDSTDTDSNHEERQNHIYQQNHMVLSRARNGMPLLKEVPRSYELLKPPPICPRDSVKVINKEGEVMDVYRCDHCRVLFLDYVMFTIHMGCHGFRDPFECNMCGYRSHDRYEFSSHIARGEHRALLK
T1 sequence (Q96SW2 whole entry): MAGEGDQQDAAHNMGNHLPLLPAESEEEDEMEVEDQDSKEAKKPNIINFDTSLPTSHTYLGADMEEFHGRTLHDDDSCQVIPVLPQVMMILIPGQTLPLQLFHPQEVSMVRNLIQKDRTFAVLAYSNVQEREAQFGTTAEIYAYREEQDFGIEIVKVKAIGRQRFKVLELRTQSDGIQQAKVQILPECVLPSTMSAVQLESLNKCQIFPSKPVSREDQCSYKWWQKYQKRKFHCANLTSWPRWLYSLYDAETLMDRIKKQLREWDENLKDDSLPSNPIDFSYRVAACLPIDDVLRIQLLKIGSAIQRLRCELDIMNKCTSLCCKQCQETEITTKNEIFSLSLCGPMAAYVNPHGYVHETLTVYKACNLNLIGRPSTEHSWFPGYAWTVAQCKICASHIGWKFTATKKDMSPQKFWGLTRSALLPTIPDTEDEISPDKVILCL
T1 sequence (Q16531 whole entry partner): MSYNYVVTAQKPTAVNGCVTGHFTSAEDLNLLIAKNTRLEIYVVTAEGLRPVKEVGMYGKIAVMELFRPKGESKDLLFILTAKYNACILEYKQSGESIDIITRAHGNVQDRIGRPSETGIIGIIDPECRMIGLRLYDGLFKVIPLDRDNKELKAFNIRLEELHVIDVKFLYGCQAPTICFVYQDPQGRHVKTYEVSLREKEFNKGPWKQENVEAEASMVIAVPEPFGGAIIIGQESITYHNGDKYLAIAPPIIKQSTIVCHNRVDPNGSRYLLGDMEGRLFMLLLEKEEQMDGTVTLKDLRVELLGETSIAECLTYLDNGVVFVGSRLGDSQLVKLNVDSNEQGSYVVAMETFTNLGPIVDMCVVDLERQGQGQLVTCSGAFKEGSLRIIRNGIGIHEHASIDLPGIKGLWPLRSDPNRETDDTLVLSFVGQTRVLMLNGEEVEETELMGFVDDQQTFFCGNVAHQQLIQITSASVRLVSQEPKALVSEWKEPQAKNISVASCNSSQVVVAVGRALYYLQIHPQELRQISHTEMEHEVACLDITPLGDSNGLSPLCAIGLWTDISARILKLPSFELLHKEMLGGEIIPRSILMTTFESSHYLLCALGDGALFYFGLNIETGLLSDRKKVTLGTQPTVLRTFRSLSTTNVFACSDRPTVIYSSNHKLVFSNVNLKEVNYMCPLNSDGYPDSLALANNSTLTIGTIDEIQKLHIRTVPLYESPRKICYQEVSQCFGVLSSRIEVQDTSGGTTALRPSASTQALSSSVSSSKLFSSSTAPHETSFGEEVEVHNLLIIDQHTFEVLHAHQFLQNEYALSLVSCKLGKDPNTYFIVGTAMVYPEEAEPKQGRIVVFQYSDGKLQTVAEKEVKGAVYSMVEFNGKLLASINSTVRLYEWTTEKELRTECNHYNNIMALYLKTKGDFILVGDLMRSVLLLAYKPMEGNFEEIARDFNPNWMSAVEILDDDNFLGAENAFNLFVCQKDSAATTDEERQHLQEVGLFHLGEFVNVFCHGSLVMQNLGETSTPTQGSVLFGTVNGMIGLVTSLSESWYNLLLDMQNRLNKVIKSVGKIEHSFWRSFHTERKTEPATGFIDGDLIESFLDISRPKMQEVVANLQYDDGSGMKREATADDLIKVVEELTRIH

GSPT1 = target: T2, GSPT1 (Homo sapiens, UniProt P15170+Q96SW2); assay: Western-blot assay of substrate protein degradation in hPBMCs, GSPT1; type: cell-based; conditions: 24 hours of compound treatment, compounds tested at 50 nM and 500 nM (concentration of the table not stated)
T2 construct: endogenous in cells; host or cells: hPBMCs (Milecell Biotechnologies)
T2 sequence (P15170 whole entry): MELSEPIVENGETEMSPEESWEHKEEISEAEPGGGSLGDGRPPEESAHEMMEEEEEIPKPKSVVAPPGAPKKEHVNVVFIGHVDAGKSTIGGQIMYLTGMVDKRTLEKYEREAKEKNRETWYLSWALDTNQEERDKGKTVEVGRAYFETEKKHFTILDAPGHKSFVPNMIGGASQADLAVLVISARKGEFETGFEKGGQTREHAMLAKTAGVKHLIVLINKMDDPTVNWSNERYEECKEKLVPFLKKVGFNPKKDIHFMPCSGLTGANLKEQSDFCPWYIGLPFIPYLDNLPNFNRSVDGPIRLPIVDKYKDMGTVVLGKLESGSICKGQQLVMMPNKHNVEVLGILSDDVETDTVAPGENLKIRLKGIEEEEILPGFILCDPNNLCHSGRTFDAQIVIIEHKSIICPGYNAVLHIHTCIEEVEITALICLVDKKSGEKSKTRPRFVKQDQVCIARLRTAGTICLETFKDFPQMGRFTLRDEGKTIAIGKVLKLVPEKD
T2 sequence (Q96SW2 whole entry): as the sequence (Q96SW2 whole entry) above
T2 sequence (Q16531 whole entry partner): as the sequence (Q16531 whole entry partner) above

WEE1 = target: T3, WEE1 (Homo sapiens, UniProt P30291+Q96SW2); assay: Western-blot assay of substrate protein degradation in hPBMCs, WEE1; type: cell-based; conditions: 24 hours of compound treatment, compounds tested at 50 nM and 500 nM (concentration of the table not stated)
T3 construct: endogenous in cells; host or cells: hPBMCs (Milecell Biotechnologies)

[1] = target: T4, human Cereblon WT GST-tagged protein (Homo sapiens, UniProt Q96SW2); assay: CRBN-binding affinity by HTRF (CEREBLON BINDING kit); conditions: HTRF inhibitory activity, CEREBLON BINDING kit; read-out: HTRF IC50
T4 construct: purchased CISBIO 64BDCRBNPEH
T4 sequence (Q96SW2 whole entry): as the sequence (Q96SW2 whole entry) above

IKZF2 = target: T5, IKZF2 (Homo sapiens, UniProt Q96SW2+Q9UKS7); assay: Western-blot assay of substrate protein degradation in hPBMCs, IKZF2; type: cell-based; conditions: 24 hours of compound treatment, compounds tested at 50 nM and 500 nM (concentration of the table not stated)
T5 construct: endogenous in cells; host or cells: hPBMCs (Milecell Biotechnologies)
T5 sequence (Q9UKS7 whole entry): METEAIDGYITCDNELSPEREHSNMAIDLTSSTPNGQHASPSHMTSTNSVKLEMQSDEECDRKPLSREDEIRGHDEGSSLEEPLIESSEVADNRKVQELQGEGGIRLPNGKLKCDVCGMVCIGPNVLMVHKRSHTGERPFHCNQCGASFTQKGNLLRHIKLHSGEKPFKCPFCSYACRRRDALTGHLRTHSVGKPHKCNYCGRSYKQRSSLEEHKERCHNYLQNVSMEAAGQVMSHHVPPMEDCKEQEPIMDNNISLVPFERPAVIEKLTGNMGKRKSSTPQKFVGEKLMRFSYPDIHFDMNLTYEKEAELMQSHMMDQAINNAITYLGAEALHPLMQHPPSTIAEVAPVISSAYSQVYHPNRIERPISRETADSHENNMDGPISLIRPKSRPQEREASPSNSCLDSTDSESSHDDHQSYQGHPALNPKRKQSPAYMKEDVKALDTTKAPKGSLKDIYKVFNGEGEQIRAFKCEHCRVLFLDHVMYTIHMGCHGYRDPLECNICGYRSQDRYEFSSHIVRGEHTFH
T5 sequence (Q96SW2 whole entry): as the sequence (Q96SW2 whole entry) above
T5 sequence (Q16531 whole entry partner): as the sequence (Q16531 whole entry partner) above

IKZF1 = target: T6, IKZF1 (Homo sapiens, UniProt Q13422+Q96SW2); assay: Western-blot assay of substrate protein degradation in hPBMCs, IKZF1; type: cell-based; conditions: 24 hours of compound treatment, compounds tested at 50 nM and 500 nM (concentration of the table not stated)
T6 construct: endogenous in cells; host or cells: hPBMCs (Milecell Biotechnologies)
T6 sequence (Q13422 whole entry): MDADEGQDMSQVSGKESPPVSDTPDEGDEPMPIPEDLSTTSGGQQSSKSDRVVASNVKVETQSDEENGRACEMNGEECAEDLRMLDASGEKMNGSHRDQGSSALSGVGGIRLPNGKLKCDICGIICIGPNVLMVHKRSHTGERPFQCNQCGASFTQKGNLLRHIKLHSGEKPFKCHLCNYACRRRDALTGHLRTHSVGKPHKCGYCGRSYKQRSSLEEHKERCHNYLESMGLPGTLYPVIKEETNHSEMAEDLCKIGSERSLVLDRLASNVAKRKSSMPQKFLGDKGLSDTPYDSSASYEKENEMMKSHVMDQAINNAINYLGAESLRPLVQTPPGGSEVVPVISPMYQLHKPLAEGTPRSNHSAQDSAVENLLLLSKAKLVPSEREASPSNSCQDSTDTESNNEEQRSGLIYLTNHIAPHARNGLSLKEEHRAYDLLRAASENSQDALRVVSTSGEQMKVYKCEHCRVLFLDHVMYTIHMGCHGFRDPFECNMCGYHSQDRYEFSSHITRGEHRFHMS
T6 sequence (Q96SW2 whole entry): as the sequence (Q96SW2 whole entry) above
T6 sequence (Q16531 whole entry partner): as the sequence (Q16531 whole entry partner) above

CAL-62 = assay: Tumor cell proliferation inhibition (CellTiter-Meiluncell Luminescent Cell Viability Assay), CAL-62; conditions: Homo sapiens, CAL-62, 96 h, read-out: inhibitory activity (IC50, nM) against tumor cells proliferation, CAL-62
[2] = system: Human acute T lymphocytic leukemia cells (Molt-4); assay: Tumor cell proliferation inhibition (CellTiter-Meiluncell Luminescent Cell Viability Assay), Molt-4; conditions: MOLT-4, 96 h, read-out: inhibitory activity (IC50, nM) against tumor cells proliferation, Molt 4
CK1α = target: T7, CK1α (Homo sapiens, UniProt P48729+Q96SW2); assay: Western-blot assay of substrate protein degradation in hPBMCs, CK1α; type: cell-based; conditions: 24 hours of compound treatment, compounds tested at 50 nM and 500 nM (concentration of the table not stated)
T7 construct: endogenous in cells; host or cells: hPBMCs (Milecell Biotechnologies)
T7 sequence (P48729 whole entry): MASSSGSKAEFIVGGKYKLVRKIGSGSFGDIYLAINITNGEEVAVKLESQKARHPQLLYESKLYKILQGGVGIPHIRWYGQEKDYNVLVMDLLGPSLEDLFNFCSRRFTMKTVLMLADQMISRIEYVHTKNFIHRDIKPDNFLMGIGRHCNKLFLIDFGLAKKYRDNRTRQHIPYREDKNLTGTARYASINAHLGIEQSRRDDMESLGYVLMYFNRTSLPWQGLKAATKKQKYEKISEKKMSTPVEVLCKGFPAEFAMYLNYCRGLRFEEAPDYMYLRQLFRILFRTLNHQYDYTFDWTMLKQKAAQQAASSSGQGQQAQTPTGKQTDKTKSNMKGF
T7 sequence (Q96SW2 whole entry): as the sequence (Q96SW2 whole entry) above
T7 sequence (Q16531 whole entry partner): as the sequence (Q16531 whole entry partner) above

CCRF-CEM = assay: Tumor cell proliferation inhibition (CellTiter-Meiluncell Luminescent Cell Viability Assay), CCRF-CEM; conditions: Homo sapiens, 96 h, read-out: inhibitory activity (IC50, nM) against tumor cells proliferation, CCRF-CEM
Experimental: The tumor cells used herein were cultured in a cell culture medium listed in table 2 at 37°C in an incubator with 5% CO2. Prior to experimentation, all cell lines used were correctly identified by STR profiling, and tested negative for mycoplasma contamination using a mycoplasma detection kit through routine screenings.
On the following day, the test compounds of the present disclosure were subjected to serial dilution. […] Subsequently, 0.5 µL of the test compound dilution was transferred into the 96-well plate containing the cells, with each well containing 100 µL of cell culture medium. […] Into the 96-well plate, the diluted test compounds and corresponding detection reagents were added, resulting in final test compound concentrations of 500 nM and 10 nM, respectively. The experimental procedure is described below using the diluted 2 µM test compound as an example.
After the cells were treated with the compounds of the present disclosure for a specified period (the treatment durations were shown in Table 3), the cell viability assay reagent was added to the culture medium according to the kit's instructions to determine cell viability. […] All controls were treated using the same procedure as the compounds of the present disclosure. The growth inhibition curves for the compounds of the present disclosure were plotted using Prism GraphPad software, and the IC50 values were calculated therefrom.

NCI-H1975 = assay: Tumor cell proliferation inhibition (CellTiter-Meiluncell Luminescent Cell Viability Assay), NCI-H1975; conditions: Homo sapiens, NCI-H1975, 96 h, read-out: inhibitory activity (IC50, nM) against tumor cells proliferation, H1975
[3] = system: Human breast cancer cells (MDA-MB-231); assay: Tumor cell proliferation inhibition (CellTiter-Meiluncell Luminescent Cell Viability Assay), MDA-MB-231; conditions: MDA-MB-231, 96 h, read-out: inhibitory activity (IC50, nM) against tumor cells proliferation, MDA-MB-231

Structure (SMILES)	IC50 (MM.1R)	IC50 (Jurkat)	IKZF3 substrate protein remaining % (IKZF3)	GSPT1 substrate protein remaining % (GSPT1)	Weel substrate protein remaining % (WEE1)	pIC50 [1]	IKZF2 substrate protein remaining % (IKZF2)	IKZF 1 substrate protein remaining % (IKZF1)	IC50 (CAL-62)	IC50 [2]	CK1a substrate protein remaining % (CK1α)	IC50 (CCRF-CEM)	IC50 (NCI-H1975)	IC50 [3]
O=C1CCC(N2Cc3cc(CN4CCN(c5cncc(Cl)c5Cl)CC4)ccc3C2=O)C(=O)N1 (stereo not shown) [GT-04538, 3-(5-((4-(4,5-dichloropyridin-3-yl)piperazin-1-yl)methyl)-1-oxoisoindolin-2-yl)piperidine-2,6-dione]	100 to 500 nM	50 to 100 nM	A (0% ≤ substrate protein remaining % ≤ 80%)	A (0% ≤ substrate protein remaining % ≤ 80%)	A (0% ≤ substrate protein remaining % ≤ 80%)	> 6.30	A (0% ≤ substrate protein remaining % ≤ 80%)	A (0% ≤ substrate protein remaining % ≤ 80%)	100 to 500 nM	50 to 100 nM	A (0% ≤ substrate protein remaining % ≤ 80%)	–	–	–
O=C1CCC(N2Cc3cc(CN4CCN(c5ccsc5)CC4)ccc3C2=O)C(=O)N1 (stereo not shown) [GT-04547, 3-(1-oxo-5-((4-(thiophen-3-yl)piperazin-1-yl)methyl)isoindolin-2-yl)piperidine-2,6-dione]	100 to 500 nM	100 to 500 nM	A (0% ≤ substrate protein remaining % ≤ 80%)	A (0% ≤ substrate protein remaining % ≤ 80%)	A (0% ≤ substrate protein remaining % ≤ 80%)	6.00 to 6.30	A (0% ≤ substrate protein remaining % ≤ 80%)	A (0% ≤ substrate protein remaining % ≤ 80%)	–	100 to 500 nM	A (0% ≤ substrate protein remaining % ≤ 80%)	–	–	–
O=C1CCC(N2Cc3cc(CN4CCN(c5cnnc(Cl)c5Cl)CC4)ccc3C2=O)C(=O)N1 (stereo not shown) [GT-04544, 3-(5-((4-(5,6-dichloropyridazin-4-yl)piperazin-1-yl)methyl)-1-oxoisoindolin-2-yl)piperidine-2,6-dione]	–	–	A (0% ≤ substrate protein remaining % ≤ 80%)	A (0% ≤ substrate protein remaining % ≤ 80%)	A (0% ≤ substrate protein remaining % ≤ 80%)	6.00 to 6.30	A (0% ≤ substrate protein remaining % ≤ 80%)	A (0% ≤ substrate protein remaining % ≤ 80%)	50 to 100 nM	–	A (0% ≤ substrate protein remaining % ≤ 80%)	–	–	–
COc1ccc(N2CCN(Cc3ccc4c(c3)CN(C3CCC(=O)NC3=O)C4=O)CC2)cc1 (stereo not shown) [GT-04447, 3-(5-((4-(4-methoxyphenyl)piperazin-1-yl)methyl)-1-oxoisoindolin-2-yl)piperidine-2,6-dione]	100 to 500 nM	100 to 500 nM	A (0% ≤ substrate protein remaining % ≤ 80%)	A (0% ≤ substrate protein remaining % ≤ 80%)	B (80%< substrate protein remaining %≤ 100%)	5.82 to 6.00	A (0% ≤ substrate protein remaining % ≤ 80%)	A (0% ≤ substrate protein remaining % ≤ 80%)	–	100 to 500 nM	B (80%< substrate protein remaining %≤ 100%)	100 to 500 nM	–	–
O=C1CCC(N2Cc3cc(CN4CCN(c5cccc(Cl)c5Cl)CC4)cc(F)c3C2=O)C(=O)N1 (stereo not shown) [GT-04445, 3-(5-((4-(2,3-dichlorophenyl)piperazin-1-yl)methyl)-7-fluoro-1-oxoisoindolin-2-yl)piperidine-2,6-dione]	–	100 to 500 nM	A (0% ≤ substrate protein remaining % ≤ 80%)	A (0% ≤ substrate protein remaining % ≤ 80%)	B (80%< substrate protein remaining %≤ 100%)	6.00 to 6.30	A (0% ≤ substrate protein remaining % ≤ 80%)	A (0% ≤ substrate protein remaining % ≤ 80%)	–	100 to 500 nM	B (80%< substrate protein remaining %≤ 100%)	100 to 500 nM	–	–
O=C1CCC(N2Cc3cc(CN4CCN(c5cccs5)CC4)ccc3C2=O)C(=O)N1 (stereo not shown) [GT-04545, 3-(1-oxo-5-((4-(thiophen-2-yl)piperazin-1-yl)methyl)isoindolin-2-yl)piperidine-2,6-dione]	–	–	A (0% ≤ substrate protein remaining % ≤ 80%)	A (0% ≤ substrate protein remaining % ≤ 80%)	A (0% ≤ substrate protein remaining % ≤ 80%)	> 6.30	A (0% ≤ substrate protein remaining % ≤ 80%)	A (0% ≤ substrate protein remaining % ≤ 80%)	100 to 500 nM	–	A (0% ≤ substrate protein remaining % ≤ 80%)	–	–	–
Cc1cscc1N1CCN(Cc2ccc3c(c2)CN(C2CCC(=O)NC2=O)C3=O)CC1 (stereo not shown) [GT-04548, 3-(5-((4-(4-methylthiophen-3-yl)piperazin-1-yl)methyl)-1-oxoisoindolin-2-yl)piperidine-2,6-dione]	10 to 50 nM	10 to 50 nM	A (0% ≤ substrate protein remaining % ≤ 80%)	A (0% ≤ substrate protein remaining % ≤ 80%)	A (0% ≤ substrate protein remaining % ≤ 80%)	6.00 to 6.30	A (0% ≤ substrate protein remaining % ≤ 80%)	A (0% ≤ substrate protein remaining % ≤ 80%)	–	10 to 50 nM	A (0% ≤ substrate protein remaining % ≤ 80%)	–	500 to 1000 nM	500 to 1000 nM
O=C1CCC(N2Cc3c(ccc(CN4CCN(c5cccc(Cl)c5Cl)CC4)c3F)C2=O)C(=O)N1 (stereo not shown) [GT-04526, 3-(5-((4-(2,3-dichlorophenyl)piperazin-1-yl)methyl)-4-fluoro-1-oxoisoindolin-2-yl)piperidine-2,6-dione]	1 to 5 nM	–	A (0% ≤ substrate protein remaining % ≤ 80%)	A (0% ≤ substrate protein remaining % ≤ 80%)	A (0% ≤ substrate protein remaining % ≤ 80%)	6.00 to 6.30	A (0% ≤ substrate protein remaining % ≤ 80%)	A (0% ≤ substrate protein remaining % ≤ 80%)	5 to 10 nM	1 to 5 nM	A (0% ≤ substrate protein remaining % ≤ 80%)	–	10 to 50 nM	10 to 50 nM
